# Data published in patent publication US11091501B2, “Heterocyclic compounds as RSV inhibitors” (Enanta Pharmaceuticals, Inc., priority 2017, dated 2021).
# System: Human RSV-A (“Long” strain)
# Experiment: RSV in vitro cytoprotection assay (CPE, ATPlite) in HEp-2 cells
# Assay type: cell-based
# Conditions: human respiratory syncytial virus, 96 h; HEp-2 cells, 4-day incubation, ATPlite readout; read-out: Human RSV-A (“Long” strain) EC50
# Method in brief: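 HEp-2 cells (8,000/well) given 2-fold serial compound dilutions in duplicate, then infected with sucrose-stabilised RSV-A Long stock. After 4 days, cell viability read by ATPlite luminescence, with a parallel uninfected plate for cytotoxicity. EC50 binned A<0.01 μM, B 0.01-0.05 μM, C>0.05 μM.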
row,EC50 [µM],SMILES
1,0.01 to 0.05,Cc1cnc(N2CC3(CCOCC3)C2)c(C(=O)Nc2ccc(C(=O)N3CCc4cc(-c5c(F)cncc5F)sc4-c4ccc(F)cc43)cc2)c1 [Example 186]
2,< 0.01,Cc1cnc(N2CC3(CCOCC3)C2)c(C(=O)Nc2ccc(C(=O)N3CCc4cc(-c5ncc(C)[nH]5)sc4-c4ccc(F)cc43)cc2)c1 [Example 187]
3,< 0.01,Cc1cnc(N2CC3(CCOCC3)C2)c(C(=O)Nc2ccc(C(=O)N3CCc4cc(-c5ccnnc5)sc4-c4ccc(F)cc43)cc2)c1 [Example 189]
4,< 0.01,Cc1cnc(N2CC3(CCOCC3)C2)c(C(=O)Nc2ccc(C(=O)N3CCc4cc(-c5cccnn5)sc4-c4ccc(F)cc43)cc2)c1 [Example 190]
5,0.01 to 0.05,Cc1cnc(N2CC3(CCOCC3)C2)c(C(=O)Nc2ccc(C(=O)N3CCc4cc(-c5ncccn5)sc4-c4ccc(F)cc43)cc2)c1 [Example 191]
6,< 0.01,Cc1cnc(N2CC3(CCOCC3)C2)c(C(=O)Nc2ccc(C(=O)N3CCc4cc(-c5cnsc5)sc4-c4ccc(F)cc43)cc2)c1 [Example 192]
7,< 0.01,Cc1cnc(N2CC3(CCOCC3)C2)c(C(=O)Nc2ccc(C(=O)N3CCc4cc(-c5nnc(C)o5)sc4-c4cc(F)c(F)cc43)cc2)c1 [Example 193]
8,0.01 to 0.05,Cc1cnc(N2CC3(CCOCC3)C2)c(C(=O)Nc2ccc(C(=O)N3CCc4cc(-c5nnnn5C5CC5)sc4-c4ccc(F)cc43)cc2)c1 [Example 194]
9,0.01 to 0.05,Cc1cnc(N2CC3(CCOCC3)C2)c(C(=O)Nc2ccc(C(=O)N3CCc4cc(-c5nnnn5C)sc4-c4ccc(F)cc43)cc2)c1 [Example 195]
10,> 0.05,Cc1cnc(N2CC3(CCOCC3)C2)c(C(=O)Nc2ccc(C(=O)N3CCc4cc(-c5nnn[nH]5)sc4-c4ccc(F)cc43)cc2)c1 [Example 196]
11,< 0.01,Cc1cnc(N2CC3(CCOCC3)C2)c(C(=O)Nc2ccc(C(=O)N3CCc4c(sc(C(=O)Nc5c(F)cccc5Cl)c4F)-c4ccccc43)cc2)c1 [Example 197]
12,< 0.01,Cc1cnc(N2CC3(CCOCC3)C2)c(C(=O)Nc2ccc(C(=O)N3CCc4c(sc(C(=O)Nc5c(F)cc(F)cc5Cl)c4F)-c4ccccc43)cc2)c1 [Example 199]
13,< 0.01,Cc1cnc(N2CC3(CCOCC3)C2)c(C(=O)Nc2ccc(C(=O)N3CCc4c(sc(C(=O)Nc5c(F)cccc5C(F)(F)F)c4F)-c4ccccc43)cc2)c1 [Example 200]
14,< 0.01,Cc1cnc(N2CC3(CCOCC3)C2)c(C(=O)Nc2ccc(C(=O)N3CCc4c(sc(-c5nc6ccccc6[nH]5)c4F)-c4ccccc43)cc2)c1 [Example 201]
15,0.01 to 0.05,Cc1cnc(N2CC3(CCOCC3)C2)c(C(=O)Nc2ccc(C(=O)N3CCc4c(sc(-c5nc6cccc(Cl)c6[nH]5)c4F)-c4ccccc43)cc2)c1 [Example 202]
16,0.01 to 0.05,Cc1cnc(N2CC3(CCOCC3)C2)c(C(=O)Nc2ccc(C(=O)N3CCc4c(sc(-c5nc6cccc(C(F)(F)F)c6[nH]5)c4F)-c4ccccc43)cc2)c1 [Example 203]
17,< 0.01,Cc1cnc(N2CC3(CCOCC3)C2)c(C(=O)Nc2ccc(C(=O)N3CCc4c(sc(C(=O)Nc5c(C)cccc5C#N)c4F)-c4ccccc43)cc2)c1 [Example 204]
18,< 0.01,Cc1cnc(N2CC3(CCOCC3)C2)c(C(=O)Nc2ccc(C(=O)N3CCc4c(sc(C(=O)Nc5ccccc5F)c4F)-c4ccccc43)cc2)c1 [Example 205]
19,< 0.01,Cc1cnc(N2CC3(CCOCC3)C2)c(C(=O)Nc2ccc(C(=O)N3CCc4c(sc(-c5nc6cccc(F)c6[nH]5)c4F)-c4ccccc43)cc2)c1 [Example 206]
20,< 0.01,Cc1cnc(N2CC3(CCOCC3)C2)c(C(=O)Nc2ccc(C(=O)N3CCc4c(sc(-c5nc6ccc(F)cc6[nH]5)c4F)-c4ccccc43)cc2)c1 [Example 207]

row,EC50 [µM],SMILES
1,< 0.01,Cc1cnc(N2CC3(CCOCC3)C2)c(C(=O)Nc2ccc(C(=O)N3CCc4c(sc(C(=O)Nc5c(C)cccc5C)c4F)-c4ccccc43)cc2)c1 [Example 208]
2,< 0.01,Cc1cnc(N2CC3(CCOCC3)C2)c(C(=O)Nc2ccc(C(=O)N3CCc4c(sc(C(=O)Nc5ccc(F)cc5F)c4F)-c4ccccc43)cc2)c1 [Example 209]
3,< 0.01,Cc1cnc(N2CC3(CCOCC3)C2)c(C(=O)Nc2ccc(C(=O)N3CCc4c(sc(C(=O)Nc5cccc(F)c5)c4F)-c4ccccc43)cc2)c1 [Example 210]
4,< 0.01,Cc1cnc(N2CC3(CCOCC3)C2)c(C(=O)Nc2ccc(C(=O)N3CCc4c(sc(C(=O)Nc5ccccc5)c4F)-c4ccccc43)cc2)c1 [Example 211]
5,0.01 to 0.05,Cc1cnc(N2CC3(CCOCC3)C2)c(C(=O)Nc2ccc(C(=O)N3CCc4c(sc(C(=O)Nc5cc(F)ccc5F)c4F)-c4ccccc43)cc2)c1 [Example 212]
6,< 0.01,Cc1ccc(C(=O)Nc2ccc(C(=O)N3CCc4c(sc(C(=O)Nc5c(F)cccc5F)c4F)-c4ccccc43)cc2)c(N2CC3(CCOCC3)C2)n1 [Example 213]
7,< 0.01,Cc1ccc(C(=O)Nc2ccc(C(=O)N3CCc4c(sc(-c5nc6cccc(F)c6[nH]5)c4F)-c4ccccc43)cc2)c(N2CC3(CCOCC3)C2)n1 [Example 214]
8,< 0.01,Cc1cnc(N2CC3(CCOCC3)C2)c(C(=O)Nc2ccc(C(=O)N3CCc4c(sc(C(=O)Nc5ncccc5F)c4F)-c4ccccc43)cc2)c1 [Example 215]
9,< 0.01,Cc1cnc(N2CC3(CCOCC3)C2)c(C(=O)Nc2ccc(C(=O)N3CCc4c(sc(C(=O)Nc5cccc(F)c5F)c4F)-c4ccccc43)cc2)c1 [Example 216]
10,< 0.01,Cc1cnc(N2CC3(CCOCC3)C2)c(C(=O)Nc2ccc(C(=O)N3CCc4c(sc(C(=O)Nc5ccc(F)cc5)c4F)-c4ccccc43)cc2)c1 [Example 217]
11,< 0.01,Cc1ccc(C(=O)Nc2ccc(C(=O)N3CCc4c(sc(C(=O)Nc5ncccc5F)c4F)-c4ccccc43)cc2)c(N2CC3(CCOCC3)C2)n1 [Example 218]
12,< 0.01,Cc1cnc(N2CC3(CCOCC3)C2)c(C(=O)Nc2ccc(C(=O)N3CCc4c(sc(C(=O)Nc5nc(C)ccc5F)c4F)-c4ccccc43)cc2)c1 [Example 219]
13,< 0.01,Cc1cc(C(=O)Nc2ccc(C(=O)N3CCc4c(sc(C(=O)Nc5c(F)cccc5F)c4F)-c4ccccc43)cc2)c(N2CC3(CCOCC3)C2)nc1C [Example 220]
14,< 0.01,Cc1cc(C(=O)Nc2ccc(C(=O)N3CCc4c(sc(C(=O)Nc5ncccc5F)c4F)-c4ccccc43)cc2)c(N2CC3(CCOCC3)C2)nc1C [Example 221]
15,< 0.01,Cc1cnc(N2CC3(CCOCC3)C2)c(C(=O)Nc2ccc(C(=O)N3CCc4c(sc(C(=O)Nc5ncncc5F)c4F)-c4ccccc43)cc2)c1 [Example 222]
16,0.01 to 0.05,Cc1cnc(N2CC3(CCOCC3)C2)c(C(=O)Nc2ccc(C(=O)N3CCc4c(sc(C(=O)Nc5ncc(C)s5)c4F)-c4ccccc43)cc2)c1 [Example 223]
17,0.01 to 0.05,Cc1cnc(N2CC3(CCOCC3)C2)c(C(=O)Nc2ccc(C(=O)N3CCc4c(sc(C(=O)Nc5ncc(F)s5)c4F)-c4ccccc43)cc2)c1 [Example 224]
18,> 0.05,Cc1cnc(N2CC3(CCOCC3)C2)c(C(=O)Nc2ccc(C(=O)N3CCc4c(sc(C(=O)Nc5ncc(C(F)(F)F)s5)c4F)-c4ccccc43)cc2)c1 [Example 225]
19,< 0.01,Cc1cnc(N2CC3(CCOCC3)C2)c(C(=O)Nc2ccc(C(=O)N3CCc4c(sc(C(=O)Nc5ncccc5C)c4F)-c4ccccc43)cc2)c1 [Example 226]
20,0.01 to 0.05,Cc1ccnc(NC(=O)c2sc3c(c2F)CCN(C(=O)c2ccc(NC(=O)c4cc(C)cnc4N4CC5(CCOCC5)C4)cc2)c2ccccc2-3)c1 [Example 227]
